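Tested at 5 concentrations; 48 h exposure; 96-well plates; endpoints linearly interpolated, else capped at highest concentration. Abbreviation: GI50, concentration required for 50% inhibition of growth. TGI: total growth inhibition.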
Experiments:
Test in all cases: NCI tumour cell line growth inhibition, 48 h
[1] = system: NCI/ADR-RES ovarian
[2] = system: OVCAR-5 ovarian
[3] = system: SF-295 CNS
[4] = system: LOX IMVI melanoma
[5] = system: HCT-116 colon
[6] = system: MDA-MB-435
[7] = system: 786-0 renal
[8] = system: SR leukemia
[9] = system: BT-549 breast
[10] = system: K-562 leukemia

| Structure (SMILES) | GI50 [1] | TGI [1] | GI50 [2] | TGI [2] | GI50 [3] | TGI [3] | GI50 [4] | TGI [4] | GI50 [5] | TGI [5] | GI50 [6] | TGI [6] | GI50 [7] | TGI [7] | GI50 [8] | TGI [8] | GI50 [9] | TGI [9] | GI50 [10] | TGI [10] |
| --- | --- | --- | --- | --- | --- | --- | --- | --- | --- | --- | --- | --- | --- | --- | --- | --- | --- | --- | --- | --- |
| O=C(Nc1ccc(Cl)cc1)N1CCN(c2ccc3nncn3n2)CC1 | > 100 µM | > 100 µM | > 100 µM | > 100 µM | 53.4 µM | > 100 µM | 92.4 µM | > 100 µM | 64 µM | > 100 µM | 64.3 µM | > 100 µM | > 100 µM | > 100 µM | 24.5 µM | > 100 µM | 57.4 µM | > 100 µM | 22 µM | > 100 µM |
| CC(=N\O)/C(C)=N/O.CC(=N\O)/C(C)=N/O.[Fe].[NH2-].c1c[nH]cn1 | > 100 µM | > 100 µM | > 100 µM | > 100 µM | > 100 µM | > 100 µM | 3.17 µM | 13.2 µM | > 100 µM | > 100 µM | > 100 µM | > 100 µM | > 100 µM | > 100 µM | > 100 µM | > 100 µM | > 100 µM | > 100 µM | > 100 µM | > 100 µM |
| C[C@@H](Oc1cc(-c2cnn(C3CCNCC3)c2)cnc1N)c1c(Cl)cc(F)cc1Cl | 5.81 µM | 20.1 µM | 2 µM | 10.1 µM | 0.505 µM | 7.23 µM | 1.37 µM | 3.21 µM | 1.12 µM | 5.16 µM | 0.749 µM | 9.42 µM | 2.13 µM | 4.84 µM | 0.0497 µM | 1.52 µM | 4.08 µM | 13 µM | 0.229 µM | 3.88 µM |
| COc1ccc(-c2nnc(Nc3nc(O)c(C4=c5cc(Br)ccc5=NC4=O)s3)o2)cc1 | 22.5 µM | > 71.8 µM | 26.7 µM | 80.3 µM | 20.6 µM | 60.4 µM | 19.8 µM | 62 µM | 25.5 µM | 97.7 µM | 23.8 µM | 57.7 µM | 25.1 µM | > 77.8 µM | 1.6 µM | 35.9 µM | 6.49 µM | 27.9 µM | 20.6 µM | 75.2 µM |
| COc1cccc(-c2nn(-c3ccccc3)cc2-c2ccnc(NCCCNS(=O)(=O)c3ccc(C(F)(F)F)cc3)c2)c1 | 3.86 µM | > 100 µM | > 100 µM | > 100 µM | 3.17 µM | > 100 µM | 4.86 µM | > 100 µM | 4.18 µM | > 100 µM | 4.2 µM | > 100 µM | 4.6 µM | > 100 µM | 1.67 µM | 4.84 µM | 4.41 µM | > 100 µM | 3.06 µM | > 100 µM |
| Cn1cc(-c2nc(-c3cn(C)c4ncccc34)cs2)c2ccccc21 | 0.62 µM | > 100 µM | 4.92 µM | 45.1 µM | 1.22 µM | 10.8 µM | 1.27 µM | > 100 µM | 0.802 µM | 18.4 µM | 0.292 µM | 1.15 µM | 2.68 µM | 13.7 µM | 0.703 µM | > 100 µM | 2.32 µM | 31 µM | 0.412 µM | > 100 µM |
| C=C1C(=O)O[C@H]2[C@H]1CC/C(COC(=O)/C=C\C(=O)NCc1ccc(Cn3c(=O)sn(-c4ccc(Cl)cc4)c3=O)cc1)=C\CC[C@@]1(C)O[C@@H]21 | 1.25 µM | 5.06 µM | 0.834 µM | 1.75 µM | 3.11 µM | 8.8 µM | 0.193 µM | 0.789 µM | 0.144 µM | 0.708 µM | 0.647 µM | 1.33 µM | 0.658 µM | 1.39 µM | 0.24 µM | 12.3 µM | 0.591 µM | 1.51 µM | 0.409 µM | 50 µM |
| C=C1C(=O)O[C@H]2[C@H]1CC/C(COC(=O)N[C@H](Cc1c[nH]c3ccccc13)C(=O)OC)=C\CC[C@@]1(C)O[C@@H]21 | 10.6 µM | 37.9 µM | 3.25 µM | 13.8 µM | 10.7 µM | 22.7 µM | 1.36 µM | 2.85 µM | 1.16 µM | 2.59 µM | 2.52 µM | 10 µM | 1.28 µM | 2.95 µM | 2.58 µM | 10.5 µM | 1.37 µM | 2.96 µM | 1.72 µM | 8.29 µM |
| Cc1nn(-c2ccccc2)c2nc(C)n(-c3ccc(Br)cc3)c(=O)c12 | 0.449 µM | > 100 µM | 1.99 µM | > 100 µM | 0.357 µM | – | 0.51 µM | > 100 µM | 0.425 µM | > 65.4 µM | 0.226 µM | 0.684 µM | 0.542 µM | > 100 µM | 0.439 µM | > 100 µM | 0.688 µM | 67.3 µM | 0.302 µM | > 100 µM |
| NS(=O)(=O)c1cc(C(=O)O)c(Cl)c([N+](=O)[O-])c1Cl | – | > 100 µM | – | > 100 µM | – | > 100 µM | – | > 100 µM | – | > 100 µM | – | > 100 µM | – | > 100 µM | – | > 100 µM | – | > 100 µM | – | > 100 µM |
| Nc1ncnc2c1ncn2CCCCC(=O)O | – | > 100 µM | – | > 100 µM | – | > 100 µM | – | > 100 µM | – | > 100 µM | – | > 100 µM | – | > 100 µM | – | > 100 µM | – | > 100 µM | – | > 100 µM |
| CCC(C(=O)[C@@H](C)[C@@H](O)[C@H](C)[C@@H]1O[C@@H]([C@@H](CC)C(=O)ONC(=O)c2ccccc2)CC[C@@H]1C)[C@H]1O[C@]2(C=CC(=O)[C@]3(CC[C@@](C)([C@H]4CC[C@](O)(CC)[C@H](C)O4)O3)O2)[C@H](C)C[C@@H]1C (stereo partly drawn) | 0.374 µM | 2.28 µM | 0.498 µM | 2.18 µM | 0.384 µM | 2.08 µM | 0.316 µM | 1.84 µM | 0.36 µM | 1.91 µM | 1.11 µM | 2.88 µM | 0.981 µM | 2.26 µM | 0.0674 µM | 0.617 µM | 0.146 µM | 1.97 µM | 0.171 µM | 1.79 µM |
| C/C=C(\C)C(=O)O[C@@H]1C=CC(=O)O[C@H]1CNC(=O)[C@H](C)O | 34.6 µM | > 100 µM | 32 µM | > 73.2 µM | 27.7 µM | > 66.7 µM | 15.9 µM | 31.3 µM | 9.48 µM | 24.2 µM | 22.6 µM | 82.1 µM | 23.6 µM | 73.5 µM | 6.78 µM | 48.6 µM | 12.5 µM | 28 µM | 16.9 µM | 64.2 µM |
| C1=C\CCCCN2CC[C@H]3[C@H](CCCC/C=C\CCCN4C[C@@H](CCCCC/1)C[C@@H]3C4)C2 | 13.8 µM | 28.8 µM | 12.5 µM | 25.5 µM | 5.3 µM | 12.1 µM | 4.3 µM | 14.8 µM | 4.33 µM | 20.8 µM | 1.73 µM | 3.26 µM | 12.5 µM | 25.9 µM | 1.85 µM | 4.93 µM | 13.4 µM | 27.3 µM | 2.37 µM | – |

— PubChem BioAssay (NCI)
